The source of these data is ChEMBL document CHEMBL1139701, “A bioisosteric approach to the discovery of indole carbinol androgen receptor ligands” (Bioorg Med Chem Lett, 2006).

One test concerns the target T1, Androgen receptor (Rattus norvegicus, UniProt P15207).
T1 sequence (P15207 whole entry): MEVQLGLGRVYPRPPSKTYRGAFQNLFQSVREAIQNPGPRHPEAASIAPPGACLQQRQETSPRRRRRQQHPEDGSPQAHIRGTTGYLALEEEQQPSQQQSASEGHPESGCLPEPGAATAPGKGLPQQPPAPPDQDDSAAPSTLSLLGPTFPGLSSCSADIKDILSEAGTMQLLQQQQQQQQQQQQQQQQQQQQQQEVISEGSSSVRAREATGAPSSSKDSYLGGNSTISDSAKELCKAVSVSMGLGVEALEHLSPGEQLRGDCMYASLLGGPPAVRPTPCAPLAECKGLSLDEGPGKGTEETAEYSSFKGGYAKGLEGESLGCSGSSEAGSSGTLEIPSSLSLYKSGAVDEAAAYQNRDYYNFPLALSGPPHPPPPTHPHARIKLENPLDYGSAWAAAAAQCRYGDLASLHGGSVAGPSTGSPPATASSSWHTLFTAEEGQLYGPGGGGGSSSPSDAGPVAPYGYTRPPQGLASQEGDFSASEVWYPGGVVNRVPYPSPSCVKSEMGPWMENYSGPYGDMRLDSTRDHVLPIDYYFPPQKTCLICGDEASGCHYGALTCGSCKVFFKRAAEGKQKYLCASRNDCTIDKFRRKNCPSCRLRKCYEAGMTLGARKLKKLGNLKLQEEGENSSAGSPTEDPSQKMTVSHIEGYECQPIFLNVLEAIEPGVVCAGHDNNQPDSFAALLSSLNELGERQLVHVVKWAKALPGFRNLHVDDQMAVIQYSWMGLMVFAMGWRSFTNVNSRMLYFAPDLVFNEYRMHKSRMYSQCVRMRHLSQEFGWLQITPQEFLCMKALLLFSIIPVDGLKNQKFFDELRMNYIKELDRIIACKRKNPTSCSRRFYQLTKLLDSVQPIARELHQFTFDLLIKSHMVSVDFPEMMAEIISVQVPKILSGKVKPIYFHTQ
As to the kind of experiment: Displacement of [3H]R1881 from rat androgen receptor. Background: In a radioligand displacement assay an active substance lowers the binding of a labelled ligand.

Test [1] concerns the target T2, Androgen receptor (Rattus norvegicus) (UniProt P15207).
T2 sequence (whole entry): T1 sequence (P15207 whole entry)
Put plainly: Displacement of [3H]R1881 from rat androgen receptor at 30 uM relative to control.

One may read the IC50 as the midpoint of a concentration-inhibition curve. Lower therefore signals greater potency. At Androgen receptor, `CC(O)(COC(=O)c1ccc(F)cc1)c1cc2cc(C#N)c(C(F)(F)F)cc2[nH]1` (centres undefined) yielded an IC50 of 1200 nM.
The same measure, in the same setting: next, `CC(O)(COC(=O)c1ccccc1)c1cc2cc(C#N)c(C(F)(F)F)cc2[nH]1` (centres undefined): 480 nM.
Take `CC(O)(CSc1ccccc1)c1cc2cc(Cl)c(C(F)(F)F)cc2[nH]1` (centres undefined): the IC50 at Androgen receptor was 220 nM.
The same measure, in the same setting: the figure for `CC(O)(CSc1ccc(Cl)cc1)c1cc2cc(Cl)c(C(F)(F)F)cc2[nH]1` (centres undefined) is 180 nM.
Same read-out and setting: next, `CN(C)c1ccc(C(=O)OCC(C)(O)c2cc3cc([N+](=O)[O-])c(C(F)(F)F)cc3[nH]2)cc1` (centres undefined): 2600 nM.
In general, inhibition refers to the change of the read-out against control, counted positive when it falls. Lower therefore signals a response near the control. `CC(O)(CSc1ccc(Cl)cc1)c1cc2ccccc2[nH]1` (centres undefined) registered an inhibition in test [1] of less than 50%.
As for `CC(O)(COC(=O)c1ccccc1C(F)(F)F)c1cc2cc(NC(=O)C(F)(F)F)c(C(F)(F)F)cc2[nH]1` (centres undefined), the IC50 at Androgen receptor stood at 150 nM.
The same measure, in the same setting: next, `CC(O)(COC(=O)c1ccc([N+](=O)[O-])cc1)c1cc2cc([N+](=O)[O-])c(C(F)(F)F)cc2[nH]1` (centres undefined): 1600 nM; `CC(O)(CSc1ccc(Cl)c(Cl)c1)c1cc2cc([N+](=O)[O-])c(C(F)(F)F)cc2[nH]1` (centres undefined): 1000 nM.
Turning to `COC(=O)c1ccc2[nH]c(C(C)(O)CSc3ccc(Cl)cc3)cc2c1` (centres undefined), in test [1], the inhibition is less than 50%.
In the case of `Cc1ccc(C(=O)OCC(C)(O)c2cc3cc([N+](=O)[O-])c(C(F)(F)F)cc3[nH]2)cc1` (centres undefined), on Androgen receptor, the IC50 was determined as 3000 nM.
The same measure, in the same setting: the figure for `CC(C)(C)c1ccc(C(=O)OCC(C)(O)c2cc3cc([N+](=O)[O-])c(C(F)(F)F)cc3[nH]2)cc1` (centres undefined) is 3600 nM; for `CC(O)(CS(=O)(=O)c1ccc(F)cc1)c1cc2cc(C#N)c(C(F)(F)F)cc2[nH]1` (centres undefined) it is greater than 6900 nM.
In turn, `COc1ccc(C(=O)OCC(C)(O)c2cc3cc([N+](=O)[O-])c(C(F)(F)F)cc3[nH]2)cc1` (centres undefined) had an IC50 on Androgen receptor of 6400 nM.
